Measurements reported in US9884832B2 (priority 2011, dated 2018).

Each compound was assayed against AM2 S31 (wild-type serine at position 31 in the M2 protein), influenza virus A/Udorn/72 (Influenza A virus, UniProt P0DOF5) (assay: cell-based). Conditions: 100 uM; Xenopus oocytes; activity range class; read-out: S31 OOcyte Inhibition at 100 uM (%).
Sequence of AM2 S31 (wild-type serine at position 31 in the M2 protein), influenza virus A/Udorn/72 (P0DOF5 whole entry, looked up): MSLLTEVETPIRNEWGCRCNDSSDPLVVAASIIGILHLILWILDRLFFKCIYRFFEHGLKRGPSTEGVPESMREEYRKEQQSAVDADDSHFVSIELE

| SMILES | inhibition at 100 µM [%] |
| --- | --- |
| c1cc2cc(CNC34CC5CC(CC(C5)C3)C4)ccc2s1 [Example 41a, N-(benzo[b]thiophen-5-ylmethyl)adamantan-1-amine] | 31 to 95 |
| O=c1ccc2cc(CNC34CC5CC(CC(C5)C3)C4)ccc2o1 [Example 42a, 6-((adamantan-1-ylamino)methyl)-2H-chromen-2-one] | 0 to 30 |
| c1cc2cn[nH]c2cc1CNC12CC3CC(CC(C3)C1)C2 [Example 43a, N-((1H-indazol-6-yl)methyl)adamantan-1-amine] | 31 to 95 |
| CC(=O)c1ccc(CNC23CC4CC(CC(C4)C2)C3)cc1 [Example 44a] | 0 to 30 |
| O=C1CCCN1c1ccc(CNC23CC4CC(CC(C4)C2)C3)cc1 [Example 45a, 1-(4-((adamantan-1-ylamino)methyl)phenyl)pyrrolidin-2-one] | 0 to 30 |
| Oc1cc(-c2ccoc2)ccc1CNC12CC3CC(CC(C3)C1)C2 [Example 46a] | 0 to 30 |
| Oc1cc(-c2ccccc2)ccc1CNC12CC3CC(CC(C3)C1)C2 [Example 47a, 4-(Adamantan-1-ylaminomethyl)-biphenyl-3-ol] | 0 to 30 |
| Oc1cc(-c2cc3ccccc3o2)ccc1CNC12CC3CC(CC(C3)C1)C2 [Example 48a] | 0 to 30 |
| Oc1cc(-c2cccs2)ccc1CNC12CC3CC(CC(C3)C1)C2 [Example 49a] | 0 to 30 |
| Oc1cc(Br)ccc1CNC12CC3CC(CC(C3)C1)C2 [Example 50a, 2-(((3s,5s,7s)-adamantan-1-ylamino)methyl)-5-bromophenol] | 31 to 95 |
| Cc1ccc(CNC23CC4CC(CC(C4)C2)C3)c(O)c1 [Example 51a] | 31 to 95 |
| OCc1cc(Br)ccc1CNC12CC3CC(CC(C3)C1)C2 [Example 52a, [2-(Adamantan-1-ylaminomethyl)-5-bromo-phenyl]methanol] | 0 to 30 |
| Oc1c(CNC23CC4CC(CC(C4)C2)C3)ccc2ccccc12 [Example 53a, 2-(Adamantan-1-ylaminomethyl)-naphthalen-1-ol] | 31 to 95 |
| Brc1ccc(CNC23CC4CC(CC(C4)C2)C3)nc1 [Example 54a, Adamantan-1-yl-(5-bromo-pyridin-2-ylmethyl)-amine] | 31 to 95 |
| c1csc(-c2ccc(CNC34CC5CC(CC(C5)C3)C4)nc2)c1 [Example 55a, Adamantan-1-yl-(5-thiophen-2-yl-pyridin-2-ylmethyl)-amine] | 31 to 95 |
| c1ccc2nc(CNC34CC5CC(CC(C5)C3)C4)ccc2c1 [Example 56a, Adamantan-1-yl-quinolin-2-ylmethyl-amine] | 31 to 95 |
| Brc1ncc(CNC23CC4CC(CC(C4)C2)C3)cn1 [Example 57a, N-((2-bromopyrimidin-5-yl)methyl)adamantan-1-amine] | 0 to 30 |
| c1csc(-c2ccc(CNC34CC5CC(CC(C5)C3)C4)cn2)c1 [Example 58a, N-((6-(thiophen-2-yl)pyridin-3-yl)methyl)adamantan-1-amine] | 31 to 95 |

Same assay, conditions: Table 1; 100 uM; Xenopus oocytes, pH 5.5, -20 mV; read-out: S31 OOcyte Inhibition at 100 uM (%)

| SMILES | inhibition at 100 µM [%] |
| --- | --- |
| Brc1ccc(CNC23CC4CC(CC(C4)C2)C3)cc1 [Example 41, N-(4-Bromobenzyl)adamantan-1-amine] | 31 to 95 |
| c1cc(-c2ccc(CNC34CC5CC(CC(C5)C3)C4)cc2)co1 [Example 42, N-(4-(Furan-3-yl)benzyl)adamantan-1-amine] | 0 to 30 |
| CC(=O)c1sccc1-c1ccc(CNC23CC4CC(CC(C4)C2)C3)cc1 [Example 43, 1-(3-(4-((Adamantan-1-ylamino)methyl)phenyl)thiophen-2-yl)ethanone] | 0 to 30 |
| c1csc(-c2ccc(CNC34CC5CC(CC(C5)C3)C4)cc2)c1 [Example 44, N-(4-(Thiophen-2-yl)benzyl)adamantan-1-amine] | 0 to 30 |
| Oc1ccc(CNC23CC4CC(CC(C4)C2)C3)cc1O [Example 45, 4-(Adamantan-1-ylaminomethyl)-benzene-1,2-diol] | 31 to 95 |
| Oc1ccc(CNC23CC4CC(CC(C4)C2)C3)c(O)c1 [Example 46, 4-(Adamantan-1-ylaminomethyl)-benzene-1,3-diol] | 31 to 95 |
| Oc1ccc(CNC23CC4CC(CC(C4)C2)C3)cc1Cl [Example 47, 4-(Adamantan-1-ylaminomethyl)-2-chloro-phenol] | 31 to 95 |
| Oc1ccc(CNC23CC4CC(CC(C4)C2)C3)cc1F [Example 48, 4-(Adamantan-1-ylaminomethyl)-2-fluoro-phenol] | 31 to 95 |
| c1cc2c(cc1CNC13CC4CC(CC(C4)C1)C3)OCO2 [Example 49] | 31 to 95 |
| COc1cc(CNC23CC4CC(CC(C4)C2)C3)ccc1O [Example 50, 4-(Adamantan-1-ylaminomethyl)-2-methoxy-phenol] | 31 to 95 |
| Cc1cc(CNC23CC4CC(CC(C4)C2)C3)ccc1O [Example 51, 4-(Adamantan-1-ylaminomethyl)-2-methyl-phenol] | 31 to 95 |
| O=[N+]([O-])c1cc(CNC23CC4CC(CC(C4)C2)C3)ccc1O [Example 52, 4-(Adamantan-1-ylaminomethyl)-2-nitro-phenol] | 31 to 95 |
| Fc1ccc(CNC23CC4CC(CC(C4)C2)C3)c(F)c1 [Example 54, Adamantan-1-yl-(2,4-difluoro-benzyl)-amine] | 31 to 95 |
| CSc1ccc(CNC23CC4CC(CC(C4)C2)C3)c(SC)c1 [Example 55, Adamantan-1-yl-(2,4-bis-methylsulfanyl-benzyl)-amine] | 0 to 30 |
| COc1cc(O)ccc1CNC12CC3CC(CC(C3)C1)C2 [Example 56, 4-(Adamantan-1-ylaminomethyl)-3-methoxy-phenol] | 0 to 30 |
| Oc1cc(OCc2ccccc2)ccc1CNC12CC3CC(CC(C3)C1)C2 [Example 57, 2-(Adamantan-1-ylaminomethyl)-5-benzyloxy-phenol] | 31 to 95 |
| Oc1ccc(CNC23CC4CC(CC(C4)C2)C3)c(Cl)c1 [Example 58, 4-(Adamantan-1-ylaminomethyl)-3-chloro-phenol] | 31 to 95 |

Same assay, conditions: Table 3; 100 uM; Xenopus oocytes, pH 5.5, -20 mV; read-out: S31 OOcyte Inhibition at 100 uM (%)

| SMILES | inhibition at 100 µM [%] |
| --- | --- |
| CSc1ccc(-c2cc(CNCC34CC5CC(CC(C5)C3)C4)no2)cc1 [Example 40b, 1-((3r,5r,7r)-adamantan-1-yl)-N-((5-(4-(methylthio)phenyl)isoxazol-3-yl)methyl)methanamine] | 0 to 30 |
| COc1ccc(-c2cc(CNC34CC5CC(CC(C5)C3)C4)no2)c(OC)c1 [Example 41b, N-((5-(2,4-dimethoxyphenyl)isoxazol-3-yl)methyl)adamantan-1-amine] | 0 to 30 |
| CSc1ccccc1-c1cc(CNC23CC4CC(CC(C4)C2)C3)no1 [Example 42b, N-((5-(2-(methylthio)phenyl)isoxazol-3-yl)methyl)adamantan-1-amine] | 0 to 30 |
| Brc1ccccc1-c1cc(CNC23CC4CC(CC(C4)C2)C3)no1 [Example 43b, N-((5-(2-bromophenyl)isoxazol-3-yl)methyl)adamantan-1-amine] | 0 to 30 |
| COc1ccsc1-c1cc(CNC23CC4CC(CC(C4)C2)C3)no1 [Example 44b, N-((5-(3-methoxythiophen-2-yl)isoxazol-3-yl)methyl)adamantan-1-amine] | 0 to 30 |
| Clc1ccccc1-c1cc(CNC23CC4CC(CC(C4)C2)C3)no1 [Example 45b, N-((5-(2-chlorophenyl)isoxazol-3-yl)methyl)adamantan-1-amine] | 0 to 30 |
| CSC(C)(C)Cc1cc(CNC23CC4CC(CC(C4)C2)C3)no1 [Example 46b, N-((5-(2-methyl-2-(methylthio)propyl)isoxazol-3-yl)methyl)adamantan-1-amine] | 0 to 30 |
| Brc1ccsc1CNC12CC3CC(CC(C3)C1)C2 [Example 47b, N-((3-Bromothiophen-2-yl)methyl)adamantan-1-amine] | 31 to 95 |
| c1sc(CNC23CC4CC(CC(C4)C2)C3)cc1C1CC1 [Example 48b, N-((4-Cyclopropylthiophen-2-yl)methyl)adamantan-1-amine] | 0 to 30 |
| CCOc1ccc(-c2ccc(CNC34CC5CC(CC(C5)C3)C4)s2)cc1 [Example 49b, N-((5-(4-Ethoxyphenyl)thiophen-2-yl)methyl)adamantan-1-amine] | 0 to 30 |
| CC(C)(C)c1ccc(-c2ccc(CNC34CC5CC(CC(C5)C3)C4)s2)cc1 [Example 50b, N-((5-(4-(tert-Butyl)phenyl)thiophen-2-yl)methyl)adamantan-1-amine] | 0 to 30 |
| Cc1csc(-c2ccc(CNC34CC5CC(CC(C5)C3)C4)s2)c1 [Example 51b, N-((4′-Methyl-[2,2′-bithiophen]-5-yl)methyl)adamantan-1-amine] | 0 to 30 |
| Cc1ccc(-c2ccc(CNC34CC5CC(CC(C5)C3)C4)s2)o1 [Example 52b, N-((5-(5-Methylfuran-2-yl)thiophen-2-yl)methyl)adamantan-1-amine] | 0 to 30 |
| c1ccc(-c2cnc(CNC34CC5CC(CC(C5)C3)C4)[nH]2)cc1 [Example 53b, N-((5-phenyl-1H-imidazol-2-yl)methyl)adamantan-1-amine] | 0 to 30 |
| c1nc(N2CCCC2)ncc1CNC12CC3CC(CC(C3)C1)C2 [Example 54b, N-((2-(pyrrolidin-1-yl)pyrimidin-5-yl)methyl)adamantan-1-amine] | 0 to 30 |
| COc1ncc(CNC23CC4CC(CC(C4)C2)C3)cn1 [Example 55b, N-((2-methoxypyrimidin-5-yl)methyl)adamantan-1-amine] | 0 to 30 |
| CCSc1ncc(CNC23CC4CC(CC(C4)C2)C3)cn1 [Example 56b, N-((2-(ethylthio)pyrimidin-5-yl)methyl)adamantan-1-amine] | 0 to 30 |
| c1nc(N2CCOCC2)ncc1CNC12CC3CC(CC(C3)C1)C2 [Example 57b, N-((2-morpholinopyrimidin-5-yl)methyl)adamantan-1-amine] | 0 to 30 |
| c1nc(N2CCCCC2)ncc1CNC12CC3CC(CC(C3)C1)C2 [Example 58b, N-((2-(piperidin-1-yl)pyrimidin-5-yl)methyl)adamantan-1-amine] | 0 to 30 |
